Test results taken from article PMC7230911, “Meroterpenoids from the Brown Alga Cystoseira usneoides as Potential Anti-Inflammatory and Lung Anticancer Agents” (Marine Drugs, 2020).

Experiments:
colitis = tested on: colitis; set-up: method as in PMID 27527191; settings: down-regulating TNF-α, IL-1ß, IL-10, suppressing COX-2 and iNOS expression in mouse colon tissue; cited from earlier work
iNOS = iNOS protein expression in LPS-stimulated THP-1 macrophages (western blot); type: cell-based, human; settings: 8 μg/mL, LPS-stimulated THP-1 cells
Protocol: COX-2 is the key enzyme regulating the production of prostaglandins, which are the central mediators of inflammation. On the other hand, iNOS enzyme represents an important molecular target closely involved in inflammatory responses. Thus, the effect of the AMTs 1–8 on LPS-induced COX-2 and iNOS protein expression was investigated by western blot analysis.
Figure 3 Effect of meroterpenoids 1–8 on LPS-induced COX-2 and iNOS protein expression in THP-1 macrophages. Cells were pretreated for 1 h with the compounds (1, 2, 3, 4, 7, and 8 at 8 μg/mL; 5 and 6 at 4 μg/mL) and then stimulated with LPS (1 μg/mL). Cytosolic lysates from 24 h-stimulated cells were separated on 10% SDS-PAGE. COX-2, iNOS, and β-actin were detected by western blot analysis. Data are expressed as means ± SE from three independent experiments. Statistical significance is indicated (+++ p < 0.001 and ++ p < 0.01, vs. Control, respectively; * p < 0.05, and ** p < 0.01 vs. Control + LPS).
Western blotting was used to measure the protein levels of COX-2 and iNOS [65]. […] Proteins concentration in cell lysates was determined by Bio-Rad Protein Assay, based on the method of Bradford (BioRad, Richmond CA, USA). […] The protein band densities were quantified using a Scientific Imaging Systems (Biophotonics ImageJ Analysis Software, National Institute of Mental Health, Bethesda, MD, USA).

COc1c(C)cc(O)cc1C/C=C(\C)CC(=O)/C=C(\C)CCCC(C)(O)C(=O)/C=C/C(C)(C)O (centres unmarked) [Compound 2, 11-hydroxy-1’-O-methylamentadione]
in vivo effect in colitis (in words) (colitis): intestinal anti-inflammatory activity in colitis
effect on iNOS (in words) (iNOS): significantly inhibited
